In article PMC4729491, “The Cellular Thioredoxin-1/Thioredoxin Reductase-1 Driven Oxidoreduction Represents a Chemotherapeutic Target for HIV-1 Entry Inhibition” (PLoS ONE, 2016):
pEC50: −log10 of the molar value.

Key:
[1] = previously known structural properties ref 20-22; cited from earlier work
[2] = tested on: HIV-1(BaL); assay: Antiviral activity in PHA-stimulated PBMCs (p24 ELISA), HIV-1(BaL); assay type: cell-based; details: PHA-stimulated PBMCs; mean ± SD; read-out: EC50 HIV-1 (BAL)
Experimental: To test the antiviral activity in fresh, PHA-stimulated PBMCs, an experiment was performed as previously described. Briefly, the cells were preincubated with HIV-1(IIIB), HIV-1(BaL) or HIV-1(HE) for 1 h at 37°C, using a viral load of 1000 x CCID50 per ml. Then, cell suspensions containing virus and 2 x 10^5 PBMCs were seeded in a 96-well microtiter plate and a serial dilution of compound was added, in a total volume of 200 μl. After 4 days, the cells were passaged and fresh culture medium, containing IL-2 and compound, was added. Three days later, cellular supernatants were harvested and viral replication in the presence of the compounds was quantified using a p24 enzyme-linked immunosorbent assay (ELISA) (Perkin Elmer, Brussels, Belgium). The half maximal effective concentration (EC50) was defined as the compound concentration that is required to block viral replication by 50%.

[3] = biological target: T1, TrxR1 (Homo sapiens, UniProt Q16881); assay: SPR binding to immobilized TrxR1; details: 10, 50 and 250 μM
T1 construct: purchased IMCO Corporation (Stockholm, Sweden) or Sino Biological Inc (Zoersel, Belgium)
T1 sequence (Q16881 1-499 isoform Q16881-5): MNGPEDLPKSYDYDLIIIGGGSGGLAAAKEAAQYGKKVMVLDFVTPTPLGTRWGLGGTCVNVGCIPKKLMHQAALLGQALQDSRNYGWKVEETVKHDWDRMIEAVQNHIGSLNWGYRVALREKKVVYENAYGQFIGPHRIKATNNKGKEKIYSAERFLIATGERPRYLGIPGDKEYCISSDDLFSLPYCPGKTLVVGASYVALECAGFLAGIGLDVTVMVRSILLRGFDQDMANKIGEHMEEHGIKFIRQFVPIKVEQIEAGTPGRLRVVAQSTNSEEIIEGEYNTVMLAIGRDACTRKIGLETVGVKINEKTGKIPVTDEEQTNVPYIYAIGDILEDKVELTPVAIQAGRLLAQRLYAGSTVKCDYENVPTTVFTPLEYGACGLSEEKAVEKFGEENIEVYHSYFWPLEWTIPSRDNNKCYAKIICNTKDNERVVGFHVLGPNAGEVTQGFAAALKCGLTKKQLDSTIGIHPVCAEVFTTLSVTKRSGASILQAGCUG
Experimental: SPR analysis was performed to evaluate binding of TE-2 to immobilized recombinant TrxR1, PDI, gp120, gp41 and sCD4. Therefore, these ligands were immobilized on a CM5 sensor chip (GE Healthcare, Uppsala, Sweden) using standard amine coupling in the presence of 10 mM sodium acetate, pH 5. A high ligand-density chip was created, with ligand densities of 6759, 5004, 4119, 2900 and 5569 RU, respectively. A reference flow cell was used to control for non-specific binding and refractive index changes. All interactions were studied at 25°C on a Biacore T200 instrument (GE Healthcare, Uppsala, Sweden) in HBS-P (10 mM HEPES, 150 mM NaCl and 0.05% surfactant P20; pH 7.4) supplemented with 10 mM CaCl2 and 5% DMSO. TE-2 was tested at the concentrations 10, 50 and 250 μM. Samples were injected during 2 minutes at a flow rate of 30 μl/min, followed by a dissociation phase of 2 minutes. Each injection was followed by a regeneration step with 50 mM NaOH (injected during 10 seconds at a flow rate of 100 μl/min).

6-(butyltelluro)-6-deoxy-β-cyclodextrin [TE-2]
Hydrophobicity [1]: Hydrophilic | pEC50 [2]: ≤ 4.60 | SPR binding to TrxR1 [3]: able to specifically bind TrxR1
